In series [1] the test system is HK-2. Put plainly: Protection against cisplatin-induced nephrotoxicity in human HK-2 cells assessed as cell viability at 1 uM preincubated with compound for 2 hrs followed by cisplatin induction and measured after 72 hrs by MTT assay (reference value: 45.1 +/- 3.2%). In kind it is functional. As to conditions: time 74 hrs, read-out: Activity.
A short description of series [2]: Cytotoxicity against human HK-2 cells incubated for 72 hrs by MTT assay. In kind it is toxicity, cell-based. (In general: Tetrazolium assays rely on reduction of a dye to a coloured formazan, in cell work by metabolically active cells.)
The subject of series [3] is HK-2. The series can be described thus: Protection against cisplatin-induced nephrotoxicity in human HK-2 cells assessed as cell viability at 5 uM preincubated with compound for 2 hrs followed by cisplatin induction and measured after 72 hrs by MTT assay (reference value: 45.1 +/- 3.2%). In kind it is functional. As to conditions: time 74 hrs, read-out: Activity.
The subject of series [4] is HK-2. The series can be described thus: Protection against cisplatin-induced nephrotoxicity in human HK-2 cells assessed as cell viability at 10 uM preincubated with compound for 2 hrs followed by cisplatin induction and measured after 72 hrs by MTT assay (reference value: 45.1 +/- 3.2%). It is filed as functional. As to conditions: time 74 hrs, read-out: Activity.
Series [5] has as its system HK-2. The series can be described thus: Protection against cisplatin-induced nephrotoxicity in human HK-2 cells at 5 to 10 uM preincubated with compound for 2 hrs followed by cisplatin induction and measured after 72 hrs by MTT assay. It is filed as functional, cell-based. As to conditions: dose 5-10 µM, time 74.0 hrs.
Series [6] addresses T1, Tyrosine-protein phosphatase non-receptor type 1 (Homo sapiens, UniProt P18031).
T1 sequence (P18031 whole entry): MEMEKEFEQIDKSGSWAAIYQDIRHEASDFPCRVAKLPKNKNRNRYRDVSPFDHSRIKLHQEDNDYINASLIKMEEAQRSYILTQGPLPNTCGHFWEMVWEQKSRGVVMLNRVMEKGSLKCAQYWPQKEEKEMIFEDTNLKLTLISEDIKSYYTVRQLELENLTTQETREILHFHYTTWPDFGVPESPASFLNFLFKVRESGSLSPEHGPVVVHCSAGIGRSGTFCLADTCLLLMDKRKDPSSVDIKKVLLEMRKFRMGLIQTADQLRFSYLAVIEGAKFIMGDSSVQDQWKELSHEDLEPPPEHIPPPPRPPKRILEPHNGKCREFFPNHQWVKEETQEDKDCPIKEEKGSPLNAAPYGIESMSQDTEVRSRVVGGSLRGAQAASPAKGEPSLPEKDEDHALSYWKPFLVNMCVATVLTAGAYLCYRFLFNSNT
Put plainly: Inhibition of PTP1B (unknown origin).

For series [7], the system named is HK-2. Put plainly: Protection against cisplatin-induced nephrotoxicity in human HK-2 cells assessed as cell viability at 1 uM preincubated with compound for 2 hrs followed by cisplatin induction and measured after 72 hrs by MTT assay (reference value: 37.37 +/- 1.35%). In kind it is functional. As to conditions: time 74 hrs, read-out: Activity.
For series [8], the system named is HK-2. Put plainly: Protection against cisplatin-induced nephrotoxicity in human HK-2 cells assessed as cell viability at 5 uM preincubated with compound for 2 hrs followed by cisplatin induction and measured after 72 hrs by MTT assay (reference value: 37.37 +/- 1.35%). In kind it is functional. As to conditions: time 74 hrs, read-out: Activity.
The subject of series [9] is HK-2. Put plainly: Protection against cisplatin-induced nephrotoxicity in human HK-2 cells assessed as cell viability at 10 uM preincubated with compound for 2 hrs followed by cisplatin induction and measured after 72 hrs by MTT assay (reference value: 37.37 +/- 1.35%). It is filed as functional. As to conditions: time 74 hrs, read-out: Activity.
Series [10] relates to HK-2. Put plainly: Protection against cisplatin-induced nephrotoxicity in human HK-2 cells preincubated with compound for 2 hrs followed by cisplatin induction and measured after 72 hrs by MTT assay. It is filed as functional, cell-based. As to conditions: dose 1-10 µM, time 74.0 hrs.
Series [11] has as its system HK-2. Put plainly: Protection against cisplatin-induced nephrotoxicity in human HK-2 cells increase in viability at 10 uM preincubated with compound for 2 hrs followed by cisplatin induction and measured after 72 hrs by MTT assay (reference value: 45.1%). In kind it is functional. As to conditions: time 74 hrs.
A short description of series [12]: Antitumor activity against cisplatin-induced mouse Lewis lung carcinoma cell line xenografted C57BL/6J mouse assessed as reduction in tumor mass at 50 mg/kg, po preadministered with compound for 3 days followed by cisplatin addition on day 3 and measured 72 hrs post cisplatin administration. It is filed as functional. The arrangement: scale not given: the % may be the effect or the level left. As to conditions: time 6 day.

pIC50: −log10 of the molar value. Calls of active or inactive are those of the source. The rule behind the calls is not given here. Bounds are passed on as bounds.

The IC50 is the point on the concentration scale where inhibition reaches its midpoint. Consider `COc1c2c(c(CN3CCN(C)CC3)c(OC)c1C(=O)c1ccccc1)OC1(C)C/C=C/C(C)(C)C/C=C(\C)CCC1C2` (stereo unspecified), for which the viability at 1 µM with HK-2 [1] was 49.7%. In [2], it took 9.5 µM to reach half-maximal inhibition (IC50 at 72 h). The viability at 5 µM in the series with HK-2 [3] turned out to be 59.6%. Also, the viability at 10 µM with HK-2 [4] came out at 64.2%. Moreover, the outcome with HK-2 [5] was Active.

As a reminder, the pIC50 is the IC50 on a negative log10 scale, so that one unit is a factor of ten. `CC1(C)[C@H]2[C@H]3[C@@H](CC[C@]3(C)[C@@H](c3ccccc3)c3c(O)c(C=O)c(O)c(C=O)c3O)[C@](C)(O)CC[C@H]21` had a pIC50 in [6] of 5.30.

Turning to `COc1c2c(c(C(=O)c3ccccc3)c(OC)c1C(=O)O)OC1(C)C/C=C/C(C)(C)C/C=C(\C)CCC1C2` (stereo unspecified), the viability at 1 µM with HK-2 [1] is 48.4%. Besides, the IC50 at 72 h in series [2] is greater than 10 µM. Moreover, the viability at 5 µM in the series on HK-2 [3] came to 60.4%. For the same molecule, in the series with HK-2 [4], the viability at 10 µM was 65%. The result in the series on HK-2 [5] was Active.

Take `COc1c(C=O)c2c(c(OC)c1C(=O)c1ccccc1)CC1CC/C(C)=C/CC(C)(C)/C=C/CC1(C)O2` (stereo unspecified): the viability at 1 µM in the series on HK-2 [1] worked out at 70.4%. For the same molecule, the IC50 at 72 h in series [2] was greater than 10 µM. Moreover, the viability at 5 µM in the series with HK-2 [3] is 79.2%. Further, in the series with HK-2 [4], the viability at 10 µM came to 67.9%. Besides, in the series on HK-2 [5], the result was Active.

`C[C@@H]1CC[C@@H]([C@@H](c2ccccc2)c2c(O)c(C=O)c(O)c(C=O)c2O)[C@]2(C)CC[C@@H](C(C)(C)O)C=C12` showed a pIC50 in series [6] of 5.30.

As to `COc1c(CO)c(OC)c(C(=O)c2ccccc2)c2c1CC1CC/C(C)=C/CC(C)(C)/C=C/CC1(C)O2` (stereo unspecified), the viability at 1 µM came out at 39.1% with HK-2 [7] and 45.7% in the series with HK-2 [1]. Besides, the viability at 5 µM with HK-2 [8] was determined as 50.5%; in the series with HK-2 [3], 80.8%. Further, the viability at 10 µM in the series on HK-2 [9] stood at 61.6%; in the series on HK-2 [4] it was 95.5%. In addition, in series [2], the IC50 at 72 h is greater than 10 µM. Further, the Activity entry was “Dose-Dependent Effect” in the series with HK-2 [10] and greater than 90% in the series with HK-2 [11]. Besides, the outcome in the series on HK-2 [5] was Active.

For `C/C1=C\CC(C)(C)/C=C/CC2(C)Oc3c(C=O)c(O)c(C(=O)c4ccccc4)c(O)c3CC2CC1` (stereo unspecified), the viability at 1 µM in the series on HK-2 [1] was 61.1%. Further, half-maximal inhibition in [2] (IC50 at 72 h) was put at 7.72 µM. For the same molecule, in the series on HK-2 [3], the viability at 5 µM came to 66.8%. Besides, in the series on HK-2 [4], the viability at 10 µM was 42.7%.

Regarding `COc1c(CN2CCN(C)CC2)c(OC)c(C(=O)c2ccccc2)c2c1CC1CC/C(C)=C/CC(C)(C)/C=C/CC1(C)O2` (stereo unspecified), in the series with HK-2 [1], the viability at 1 µM stood at 46.3%. The molecule further came in with an IC50 at 72 h in [2] of 9.1 µM. Further, the viability at 5 µM with HK-2 [3] came to 57.9%. Moreover, the viability at 10 µM in the series with HK-2 [4] worked out at 47.8%.

As to `COc1c(CO)c2c(c(OC)c1C(=O)c1ccccc1)CC1CC/C(C)=C/CC(C)(C)/C=C/CC1(C)O2` (stereo unspecified), in the series on HK-2 [1], the viability at 1 µM was 51.2%. This molecule also came in with an IC50 at 72 h in series [2] greater than 10 µM. In addition, the viability at 5 µM in the series on HK-2 [3] was found to be 73.6%. Also, the viability at 10 µM in the series on HK-2 [4] was 83.3%. The result in the series on HK-2 [5] was Active.

As to `COc1c(CO)c2c(c(OC)c1C(=O)c1ccccc1)CC(C)C(C)(C)O2` (stereo unspecified), the viability at 1 µM with HK-2 [7] stood at 40.1%. The viability at 5 µM in the series with HK-2 [8] worked out at 45.6%. Besides, in the series with HK-2 [9], the viability at 10 µM was found to be 48.4%. This molecule also displayed an IC50 at 72 h in series [2] greater than 10 µM. The result in the series with HK-2 [5] was Active.

`COc1c2c(c(C(=O)O)c(OC)c1C(=O)c1ccccc1)OC1(C)C/C=C/C(C)(C)C/C=C(\C)CCC1C2` (stereo unspecified): the viability at 1 µM in the series with HK-2 [1] came to 48.2%. In addition, in [2], the IC50 at 72 h was greater than 10 µM. In addition, in the series with HK-2 [3], the viability at 5 µM was determined as 64.4%. Further, the viability at 10 µM with HK-2 [4] was 68.2%. In the series with HK-2 [5], the outcome was Active.

In the case of `NCCCNCCSP(=O)(O)O` [AMIFOSTINE], the Activity in series [12] amounted to 28.2%.

As for `C=C1CC[C@@H]2[C@H](c3ccccc3)c3c(O)c(C=O)c(O)c(C=O)c3O[C@@]2(C)CC[C@H]2[C@H]1CC2(C)C`, the pIC50 in series [6] was 5.30.

`C/C1=C\CC(C)(C)/C=C/CC2(C)Oc3c(c(O)c(C=O)c(O)c3C(=O)c3ccccc3)CC2CC1` (stereo unspecified): in the series with HK-2 [1], the viability at 1 µM is 60.3%. The same molecule came in with an IC50 at 72 h in [2] greater than 10 µM. Besides, the viability at 5 µM with HK-2 [3] was 70.2%. In the series on HK-2 [4], the viability at 10 µM turned out to be 67.1%.
